Reference: article PMC6109075, “Characterization of membrane penetration and cytotoxicity of C9orf72-encoding arginine-rich dipeptides” (Scientific Reports, 2018)
Entries after “also recorded” stand apart in the source; their conditions may differ. Ends that are not written are not given here. Peptide text beside a SMILES is read from it.

Key:
NSC34 cells [1] = test: LDH release assay in NSC34 cells; type: cell-based, mouse; details: 24 hr, N = 6
Method: LDH assay was performed with Cytotoxicity LDH Assay Kit-WST from Wako (Japan) following the manufacture’s protocol. Briefly, mouse neuronal NSC34 cells or human fibroblasts were plated on a 96-well plate at 2 × 10^4 cells/well and then treated with the indicated concentration of peptide for 24 hr (NSC34 cells) or 48 hr (fibroblasts) before measurement of LDH release. The absorbance was measured by iMark microplate absorbance reader (Biorad).

NSC34 cells [2] = test: Cytotox glo assay in NSC34 cells; type: cell-based, mouse; details: 24 hr, N = 6
Text: Anti-B23/nucleophosmin antibody was purchased from Cell signaling technology (Danvers, MA). RNAse A was obtained from Qiagen (Hilden, Germany). 1-Step Human Coupled IVT kit, oleic acid, poly-A RNA, Prolong Gold with DAPI and Nucblue live reagent were purchased from ThermoFisher Scientific (Waltham, MA). Cytotoxicity LDH Assay Kit-WST and octanol were obtained from Wako pure chemicals (Japan). Cell Titer-Glo and Cell-tox glo kits were purchased from Promega (Madison, WI). TAMRA-labeled random 15mer RNA was synthesized by Fasmac (Japan). Anti-puromycin antibody was purchased from Millipore.

NSC34 cells [3] = test: Penetration of FITC-conjugated DRPs into NSC34 cells; type: cell-based, mouse; details: fluorescence intensity
[4] = Peptides absorption assay (buffer / octanol containing oleic acid); type: physicochemical; details: FITC-labeled peptide, buffers of different pH vs octanol containing 1% oleic acid (v/v), vortexed 5 min, fluorescence
Method: All buffers used for the peptide absorption assay were prepared with 140 mM NaCl, 2.5 mM KCl, 5 mM HEPES, 5 mM glycine, and the final pH was adjusted with NaOH or HCl.
The assay to show the effect of pH in peptides absorption into a hydrophobic phase was performed as previously reported. […] Fifty microliter of the buffer-peptide mix and 50 μl of octanol containing 1% of oleic acid (OA) (v/v) were placed into a microtubes and vortexed for 5 min, followed by centrifugation at 2200 g briefly to separate the octanol phase and buffer phase. After separation, octanol phase containing OA and absorbed peptides were collected and the fluorescence was measured by a plate reader TECAN infinite F200 (Mannedorf, Switzerland).

Hela cells = test: Peptide penetration assay, Hela cells at different pH (imaging); type: cell-based, human; details: PBS pH6.0, pH7.4, pH8.0, 2 μM FITC-peptide, 1 hr
Method: For imaging, Hela cells were washed twice with phosphate buffered saline (PBS) (pH7.4) and then incubated with PBS of different pH (pH6.0, pH7.4 and pH8.0) containing 2 μM of FITC-(PR)20 or FITC-R12 for 1 hr, followed by washing with PBS twice. For quantification, HEK293 cells were incubated with 10 μM FITC-(PR)20 in 10% FBS-DMEM for 30 min at 4 °C or 37 °C. The cells were washed twice with PBS and then re-suspended in PBS. The fluorescent signal was measured by a plate reader TECAN infinite F200.

HEK293 cells = test: Confocal imaging of live or fixed/permeabilized HEK293 cells treated with FITC-labeled CPPs; type: cell-based, human; details: for entry into fixed/permeabilized cells: HEK293 cells after fixation/permeabilization, 10 μM FITC-peptide
Method: HEK293 cells were treated with 10 μM of FITC-labeled CPPs for 1 hr in combination with Nucblue live dye and then washed with PBS twice. The images were obtained by FV10 confocal microscopy (Olympus, Japan) or LSM710 confocal microscopy (Zeiss, Germany).
For RNAse A treatment, the HEK293 cells, fixed and permeabilized, were incubated with 10 μg/ml of recombinant RNAse A for 1 hr at 37 °C, followed by treatment with 10 μM of FITC-labeled peptides for 30 min. The cells were then washed with PBS twice and imaged with a confocal microscopy.

[5] = Functional assay of (PR)12 stability after incubation in culture medium; type: in vitro ADME; details: 20 µM (PR)12-FITC, 2 hr with live HEK293 cells in DMEM-10%FBS, conditioned medium transferred to fixed/permeabilized HEK293 cells, read-out nucleolar accumulation
[6] = system: protein translation (Hela cell lysates); test: In vitro translation (IVT) assay, turboGFP fluorescence; type: biochemical, human; details: cell-free IVT, 100 μM peptide, turboGFP cDNA and Hela cell lysates, 37 °C, read every 1 min, N = 3
Method: IVT assay was performed with 1-step Human-Coupled IVT kit (ThermoFisher) following manufacturer’s protocol. Briefly, turboGFP cDNA and Hela cell lysates were mixed in a 96 white-well PCR plate in the presence or absence of 100 μM of each peptide and incubated at 37 °C. The fluorescence from translated turboGFP was measured by LightCycler (Roche lifescience) every 1 min.

EGFR (Homo sapiens) = EGFR (Homo sapiens) (UniProt P00533); details: cited from earlier work

Molecule: PRPRPRPRPRPRPRPRPRPRPRPRPRPRPRPRPRPRPRPR [(PR)20]
- cytotoxicity, LDH release (NSC34 cells [1]): killed the cells; also recorded: exerted stronger cytotoxicity
- cytotoxicity, Cytotox glo luminescence (NSC34 cells [2]): killed the cells
- penetration into NSC34 cells (NSC34 cells [3]): entered NSC34 cells more efficiently

Molecule: human insulin: FITC-labeled recombinant human insulin (51 a.a.), non-permeable, from Sigma
- effect of pH on absorption of peptide into the octanol phase [4]: did not enhance the absorption

Molecule: N=C(N)NCCC[C@H](NC(=O)[C@H](CCCNC(=N)N)NC(=O)[C@H](CCCNC(=N)N)NC(=O)[C@H](CCCNC(=N)N)NC(=O)[C@H](CCCNC(=N)N)NC(=O)[C@H](CCCNC(=N)N)NC(=O)[C@H](CCCNC(=N)N)NC(=O)[C@H](CCCNC(=N)N)NC(=O)[C@H](CCCNC(=N)N)NC(=O)[C@H](CCCNC(=N)N)NC(=O)[C@H](CCCNC(=N)N)NC(=O)[C@H](CCCNC(=N)N)NC(=S)Nc1ccc2c(c1)C(=O)OC21c2ccc(O)cc2Oc2cc(O)ccc21)C(=O)O [FITC-R12]
- effect of extracellular pH on distribution of peptide into cells (Hela cells): higher pH increased the distribution of FITC-labeled CPPs into the cells

Molecule: N=C(N)NCCC[C@H](NC(=O)[C@@H]1CCCN1C(=O)[C@H](CCCNC(=N)N)NC(=O)[C@@H]1CCCN1C(=O)[C@H](CCCNC(=N)N)NC(=O)[C@@H]1CCCN1C(=O)[C@H](CCCNC(=N)N)NC(=O)[C@@H]1CCCN1C(=O)[C@H](CCCNC(=N)N)NC(=O)[C@@H]1CCCN1C(=O)[C@H](CCCNC(=N)N)NC(=O)[C@@H]1CCCN1C(=O)[C@H](CCCNC(=N)N)NC(=O)[C@@H]1CCCN1C(=O)[C@H](CCCNC(=N)N)NC(=O)[C@@H]1CCCN1C(=O)[C@H](CCCNC(=N)N)NC(=O)[C@@H]1CCCN1C(=O)[C@H](CCCNC(=N)N)NC(=O)[C@@H]1CCCN1C(=O)[C@H](CCCNC(=N)N)NC(=O)[C@@H]1CCCN1C(=O)[C@H](CCCNC(=N)N)NC(=O)[C@@H]1CCCN1C(=O)[C@H](CCCNC(=N)N)NC(=O)[C@@H]1CCCN1C(=O)[C@H](CCCNC(=N)N)NC(=O)[C@@H]1CCCN1C(=O)[C@H](CCCNC(=N)N)NC(=O)[C@@H]1CCCN1C(=O)[C@H](CCCNC(=N)N)NC(=O)[C@@H]1CCCN1C(=O)[C@H](CCCNC(=N)N)NC(=O)[C@@H]1CCCN1C(=O)[C@H](CCCNC(=N)N)NC(=O)[C@@H]1CCCN1C(=O)[C@H](CCCNC(=N)N)NC(=O)[C@@H]1CCCN1C(=O)[C@H](CCCNC(=N)N)NC(=O)[C@@H]1CCCN1C(=S)Nc1ccc2c(c1)C(=O)OC21c2ccc(O)cc2Oc2cc(O)ccc21)C(=O)O [FITC-(PR)20] (HELM PEPTIDE1{[O=C1OC2(c3ccc(O)cc3Oc3cc(O)ccc32)c2ccc(NC(=S)[*:2])cc21].P.R.P.R.P.R.P.R.P.R.P.R.P.R.P.R.P.R.P.R.P.R.P.R.P.R.P.R.P.R.P.R.P.R.P.R.P.R.P.R}$$$$V2.0)
- entry into fixed/permeabilized cells (HEK293 cells): entered the cells and accumulated to nucleoli
- penetration of the plasma membrane of live cells (HEK293 cells; live HEK293 cells, 10 μM FITC-peptide added to culture medium): penetrated the plasma membrane and accumulated to nucleoli

Molecule: PRPRPRPRPRPRPRPRPRPRPRPR [(PR)12]
- cytotoxicity, LDH release (NSC34 cells [1]): did not show cytotoxicity
- stability in the culture medium [5]: stable in the culture medium

Molecule: N=C(N)NCCC[C@H](NC(=O)[C@@H]1CCCN1C(=O)[C@H](CCCNC(=N)N)NC(=O)[C@@H]1CCCN1C(=O)[C@H](CCCNC(=N)N)NC(=O)[C@@H]1CCCN1C(=O)[C@H](CCCNC(=N)N)NC(=O)[C@@H]1CCCN1C(=O)[C@H](CCCNC(=N)N)NC(=O)[C@@H]1CCCN1C(=O)[C@H](CCCNC(=N)N)NC(=O)[C@@H]1CCCN1C(=O)[C@H](CCCNC(=N)N)NC(=O)[C@@H]1CCCN1C(=O)[C@H](CCCNC(=N)N)NC(=O)[C@@H]1CCCN1C(=O)[C@H](CCCNC(=N)N)NC(=O)[C@@H]1CCCN1C(=O)[C@H](CCCNC(=N)N)NC(=O)[C@@H]1CCCN1C(=O)[C@H](CCCNC(=N)N)NC(=O)[C@@H]1CCCN1C(=O)[C@H](CCCNC(=N)N)NC(=O)[C@@H]1CCCN1C(=S)Nc1ccc2c(c1)C(=O)OC21c2ccc(O)cc2Oc2cc(O)ccc21)C(=O)O [FITC-(PR)12] (HELM PEPTIDE1{[O=C1OC2(c3ccc(O)cc3Oc3cc(O)ccc32)c2ccc(NC(=S)[*:2])cc21].P.R.P.R.P.R.P.R.P.R.P.R.P.R.P.R.P.R.P.R.P.R.P.R}$$$$V2.0)
- entry into fixed/permeabilized cells (HEK293 cells): entered the cells and accumulated to nucleoli

Molecule: N=C(N)NCCC[C@H](NC(=O)CNC(=O)[C@H](CCCNC(=N)N)NC(=O)CNC(=O)[C@H](CCCNC(=N)N)NC(=O)CNC(=O)[C@H](CCCNC(=N)N)NC(=O)CNC(=O)[C@H](CCCNC(=N)N)NC(=O)CNC(=O)[C@H](CCCNC(=N)N)NC(=O)CNC(=O)[C@H](CCCNC(=N)N)NC(=O)CNC(=O)[C@H](CCCNC(=N)N)NC(=O)CNC(=O)[C@H](CCCNC(=N)N)NC(=O)CNC(=O)[C@H](CCCNC(=N)N)NC(=O)CNC(=O)[C@H](CCCNC(=N)N)NC(=O)CNC(=O)[C@H](CCCNC(=N)N)NC(=O)CNC(=O)[C@H](CCCNC(=N)N)NC(=O)CNC(=O)[C@H](CCCNC(=N)N)NC(=O)CNC(=O)[C@H](CCCNC(=N)N)NC(=O)CNC(=O)[C@H](CCCNC(=N)N)NC(=O)CNC(=O)[C@H](CCCNC(=N)N)NC(=O)CNC(=O)[C@H](CCCNC(=N)N)NC(=O)CNC(=O)[C@H](CCCNC(=N)N)NC(=O)CNC(=O)[C@H](CCCNC(=N)N)NC(=O)CN)C(=O)O [(GR)20]
- penetration into NSC34 cells (NSC34 cells [3]): also entered the cells as well

Molecule: amyloid β: amyloid β (40 a.a.), negative control peptide, from Peptide Institute
- inhibition of protein translation in vitro (tGFP fluorescence) [6]: did not see inhibitory effect

Molecule: GE11
- Kd (EGFR (Homo sapiens)): 0.022 µM
